Source: article PMC4099323, “Inhibition of Catalase by Tea Catechins in Free and Cellular State: A Biophysical Approach” (PLoS ONE, 2014)

Assays:
K562 cells = assay: Intracellular ROS by DCFDA fluorescent probe; assay type: cell-based, human; details: 24 h, basal 255.09±3.69 AU
Description: Intracellular ROS were estimated by using the DCFDA fluorescent probe. Intracellular H2O2 and other peroxides can oxidize DCFDA to highly fluorescent compound dichlorofluorescein (DCF). K562 cells were incubated at 37°C in absence and presence of EGCG (12.5 – 100 µM) for 24 h. Cells were again incubated with 10 µM DCFDA at 37°C for an additional 30 min, and then washed twice with PBS. Finally the fluorescence intensity of DCF was measured with an excitation wavelength of 485 nm and emission wavelength of 530 nm.

[1] = molecular target: T1, Catalase (from bovine liver) (Bos taurus, UniProt P00432); assay: Circular dichroism: catechin-induced conformational change in catalase; details: catalase 1 µM, ligands 3 µM each, 25°C
T1 construct: Catalase (from bovine liver); purchased Sigma-Aldrich, St. Louis, MO, USA; host or cells: bovine liver
T1 sequence (P00432 2-527 limits assumed): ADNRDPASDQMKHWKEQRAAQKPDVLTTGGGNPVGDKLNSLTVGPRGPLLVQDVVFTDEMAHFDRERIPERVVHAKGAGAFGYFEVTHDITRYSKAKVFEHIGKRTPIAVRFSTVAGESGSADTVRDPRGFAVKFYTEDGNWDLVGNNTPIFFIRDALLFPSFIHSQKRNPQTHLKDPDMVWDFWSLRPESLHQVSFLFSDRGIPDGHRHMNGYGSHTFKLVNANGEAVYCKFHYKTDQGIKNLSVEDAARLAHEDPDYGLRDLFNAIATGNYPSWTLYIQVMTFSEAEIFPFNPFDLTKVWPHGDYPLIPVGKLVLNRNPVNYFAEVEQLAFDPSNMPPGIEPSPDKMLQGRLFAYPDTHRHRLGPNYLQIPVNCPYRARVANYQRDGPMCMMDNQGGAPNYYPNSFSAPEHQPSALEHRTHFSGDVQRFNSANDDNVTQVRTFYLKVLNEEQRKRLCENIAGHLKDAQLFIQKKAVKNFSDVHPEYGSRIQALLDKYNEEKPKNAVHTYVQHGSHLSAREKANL
Description: All the CD experiments were carried out on a Jasco-815 automatic spectropolarimeter (Jasco International Co., Ltd. Hachioji, Japan) equipped with a peltier cuvette holder and temperature controller PFD425 L/15. The catalase concentration and path length of the cuvette used were 1 µM and 0.1 cm, respectively. The instrument parameters were set at scanning speed of 50 nm/min, bandwidth of 1.0 nm and sensitivity of 100 milli degree. The molar ellipticity values are expressed in terms of mean residue molar ellipticity, in units of deg. cm^2 dmol^−1.
CD allows investigation of the conformational changes that occur in a protein upon ligand binding. The CD spectra of catalase at pH 7.4 in the absence and in the presence of EGC, EC, ECG, EGCG, and 3-AT at 25°C are represented in Figure 5 (a – f). […] The negative band at 208 and 220 nm decreased in intensity with the addition of various catechins, which is indicative of the loss of α-helicity upon interaction. […] From the CD spectra, the effect of catechins on the secondary structure of catalase is in the following order: 3-AT>EGCG>ECG>EC>EGC.

DNA methyltransferase = details: KYSE 510 human esophageal cancer cells; cited from earlier work
[2] = molecular target: T1, Catalase (from bovine liver); assay: Isothermal titration calorimetry of catechins binding to catalase; details: 25°C
Description: The energetics of the binding of catechins to catalase was studied by ITC using a MicroCal ITC200, (Northampton, MA, USA). All solutions were degassed under vacuum (140 mbar, 10 min) on the MicroCal’s Thermovac unit to eliminate air bubble formation inside the calorimeter cell. Briefly, the calorimeter syringe was filled with a concentrated solution of catechins (10 µM each). Successive injections of this solution into 1 µM solution of catalase in the calorimeter cell were effected from the rotating syringe with constant stirring of the solution. The titration and analysis were performed through Origin 7 software provided with the unit.
ITC directly measures the heat released during a chemical reaction. ITC can reveal the stoichiometry, enthalpy free energy, and entropy changes that occur over the course of a reaction, [46]. Data obtained from the titration are presented by the series of peaks corresponding to each injection. Usually, this representation is transformed into the apparent heat change between two injections as a function of the titrant ratio by means of integration of power differential with regard to time. ITC has been used mainly to quantify interactions in various biochemical systems [47]–[49]. ITC has been used in the present study to determine binding affinity and other thermodynamic parameters of catechins-catalase interaction. Representative isothermal calorimetric heat profiles for the binding of catechins-catalase interaction, at physiological pH and 25°C are shown in Figure 4 (A–D). The data were corrected for the heat of dilution of catechins, which was determined in a separate set of experiments under identical conditions. The titration and analysis were performed using one-site binding model through Origin 7 software provided with the unit. From Figure 4 it is observed that the titration of catalase with all the four catechins yield negative heat deflections. EC, EGC, ECG, and EGCG bind to catalase with binding constants 2.13×10^5, 1.92×10^5, 6.36×10^5, and 8.19×10^5 M^−1, respectively, as determined by the following equation: ΔG = −RT ln K, where ΔG is the free energy, R and T are the gas constant and temperature, respectively, K is the binding constant.

[3] = ITC, directly extracted from the experiment

O=C(O[C@@H]1Cc2c(O)cc(O)cc2O[C@@H]1c1cc(O)c(O)c(O)c1)c1cc(O)c(O)c(O)c1 [EGCG, (−)-epigallocatechin gallate]
intracellular ROS (K562 cells; 12.5 µM): 298.01±4.89 AU | intracellular ROS (K562 cells; 25 µM): 320.83±4.03 AU | intracellular ROS (K562 cells; 50 µM): 354.07±4.66 AU | intracellular ROS (K562 cells; 100 µM): 442.90±7.43 AU | order of effect on the secondary structure of catalase (loss of α-helicity) [1]: 3-AT>EGCG>ECG>EC>EGC | Ki (DNA methyltransferase): 7 µM | ΔG ([2]; ITC, calculated from the average values of ΔH): -7.95 kcal/mol | ΔH [2, 3]: -450 ± 22.5 kcal/mol | ΔS [2, 3]: −1.48×10^3 cal/mol/K | Kd ([2]; one-site binding model, from ΔG = −RT ln K, read-out: binding constant with catalase (ITC) (converted)): 1.22 µM
